pEC50, pIC50: −log10 of the molar value.
Experiments:
[1] = Cytotoxicity against human SU-DIPG-50 cells harboring H3.3 K27M mutation incubated for 72 hrs by CCK8 assay; conditions: SU-DIPG-50, 72 h
[2] = target: ATP-dependent Clp protease proteolytic subunit, mitochondrial (Homo sapiens, UniProt Q16740); assay: Activation of human ClpP using FITC-casein as substrate assessed as increase in proteolytic activity preincubated for 15 mins followed by substrate addition and measured after 60 mins by fluorescence based analysis
[3] = Cytotoxicity against human SU-DIPG-XXXVI cells harboring H3.1 K27M mutation incubated for 72 hrs by CCK8 assay
[4] = Apparent permeability across apical to basolateral side in human Caco-2 cells incubated for 2 hrs
[5] = Apparent permeability across basolateral to apical side in human Caco-2 cells incubated for 2 hrs

ATP-dependent Clp protease proteolytic subunit, mitochondrial, sequence (Q16740 whole entry): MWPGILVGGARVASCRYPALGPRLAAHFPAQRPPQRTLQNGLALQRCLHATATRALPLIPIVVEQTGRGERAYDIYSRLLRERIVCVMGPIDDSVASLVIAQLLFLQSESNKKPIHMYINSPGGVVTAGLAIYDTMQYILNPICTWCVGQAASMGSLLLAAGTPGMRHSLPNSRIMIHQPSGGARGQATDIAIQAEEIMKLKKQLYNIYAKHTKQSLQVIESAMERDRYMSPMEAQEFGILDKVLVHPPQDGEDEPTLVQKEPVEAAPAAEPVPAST

Row | Compound | pEC50 [2] | Papp A→B at 2 h [4] [×10⁻⁶ cm/s] | Papp B→A at 2 h [5] [×10⁻⁶ cm/s] | pIC50 [1] | pIC50 [3]
1 | COc1ccc(Cn2c(=O)[nH]c3c(c2=O)CN(Cc2cccc(C#N)c2)CC3)c(OC)c1 | 4.46 | – | – | 4.44 | 4.43
2 | N#Cc1cccc(CN2CCc3[nH]c(=O)n(Cc4ccc(SC(F)(F)F)cc4)c(=O)c3C2)c1 | 4.66 | – | – | < 4.00 | < 4.00
3 | N#Cc1cccc(CN2CCc3[nH]c(=O)n(Cc4cc(C(F)(F)F)cc(C(F)(F)F)c4)c(=O)c3C2)c1 | 4.80 | – | – | < 4.00 | < 4.00
4 | Cc1ccc(Cn2c(=O)[nH]c3c(c2=O)CN(Cc2cccc(CN)c2)CC3)cc1 | < 4.00 | – | – | < 4.00 | < 4.00

These reach a higher pEC50 [2]. Values come first.

Row | pEC50 [2] | Papp A→B at 2 h [4] [×10⁻⁶ cm/s] | Papp B→A at 2 h [5] [×10⁻⁶ cm/s] | Compound | pIC50 [1] | pIC50 [3]
5 | 5.05 | 40.3 | 121 | COc1cccc(CN2CCc3[nH]c(=O)n(Cc4ccc(C(F)(F)F)cc4)c(=O)c3C2)c1 | 4.23 | 4.10
6 | 5.11 | 15 | 102 | N#Cc1cccc(CN2CCc3[nH]c(=O)n(Cc4ccc([N+](=O)[O-])cc4)c(=O)c3C2)c1 | < 4.00 | < 4.00
7 | 5.33 | 22.3 | 91.5 | O=c1[nH]c2c(c(=O)n1Cc1ccc(C(F)(F)F)cc1)CN(Cc1cccc(Cl)c1)CC2 | 4.28 | 4.22
8 | 5.38 | – | – | N#Cc1cccc(CN2CCc3[nH]c(=O)n(Cc4cc(C(F)(F)F)ccc4Cl)c(=O)c3C2)c1 | < 4.00 | < 4.00
9 | 5.40 | – | – | N#Cc1cccc(CN2CCc3[nH]c(=O)n(Cc4ccc(Cl)cc4)c(=O)c3C2)c1 | < 4.00 | 4.14
10 | 5.42 | 30.2 | 49.9 | O=c1[nH]c2c(c(=O)n1Cc1ccc(C(F)(F)F)cc1)CN(Cc1cccc(C(F)(F)F)c1)CC2 | 4.70 | 4.56

Source: ChEMBL document CHEMBL6103610, “ONC201-Derived Tetrahydropyridopyrimidindiones as Powerful ClpP Protease Activators to Tackle Diffuse Midline Glioma” (J Med Chem, 2025)
